Laboratory results taken from patent publication US7105313B2, “Cell-based drug screens for regulators of gene expression” (Amgen Inc., priority 1996, dated 2006).

Experiments:
[1] = tested on: LDLR gene expression; test: Northern hybridization of RNA from the LDLR-luciferase knock-in HepG2 cell line; format: cell-based, human; conditions: LDLR luciferase knock-in HepG2 cells
Procedure: The LDLR targeting construct was introduced into HepG2 cells by electroporation. Following recovery, the cells were maintained in media supplemented 1 mg/ml G418 and 2 uM gancyclovir for 3-4 weeks until individual colonies were observed. These […] isolated and propagated as individual cultures for further characterization. Individual clones were expanded into 24 well tissue culture plates, and genomic DNA was prepared and analyzed by restriction digestion and Southern hybridization. […] This clone was expanded for further characterization and use as a reporter cell line for LDLR gene expression. To determine whether the expression of luciferase gene is regulated as the same way as the endogenous LDLR gene, RNA was prepared and analyzed by Northern hybridization. […] The cholesterol-dependent regulation is the hallmark of LDLR gene expression. As indicated, the LDLR mRNA was regulated by in the presence or absence of cholesterol, albeit in this case the LDLR mRNA level was reduced to half due to the loss of one allele, which was replaced by the luciferase gene. The use of the luciferase knock-in cell line for LDLR gene expression was further validated by the luciferase activity, which was also regulated by cholesterol as predicted.

[2] = tested on: LDLR gene expression; test: Luciferase activity of the LDLR-luciferase knock-in HepG2 cell line; format: cell-based, human; conditions: LDLR luciferase knock-in HepG2 cells
Procedure: To determine whether the expression of luciferase gene is regulated as the same way as the endogenous LDLR gene, RNA was prepared and analyzed by Northern hybridization. […] The cholesterol-dependent regulation is the hallmark of LDLR gene expression. As indicated, the LDLR mRNA was regulated by in the presence or absence of cholesterol, albeit in this case the LDLR mRNA level was reduced to half due to the loss of one allele, which was replaced by the luciferase gene. The use of the luciferase knock-in cell line for LDLR gene expression was further validated by the luciferase activity, which was also regulated by cholesterol as predicted. • Aliquot 100 ul cell suspension (10^4–10^5 primary or cultured, differentiated cells) into each well of 96-well plate under sterile conditions • Add compound or extract to 10 uM final concentration • Incubate 6–18 hrs at 37° C. • Remove incubation media • Add 100 ul lysis/luciferin buffer containing 1.0% non-ionic detergent (Triton x-100), 530 uM ATP, 270 uM coA and 470 uM luciferin (Promega). • Measure luciferase-derived luminescence on automated Torcon AML-34 and 7710 Microplate Luminometer (Cambridge Technologies, Inc.) luminometers.

Row | SMILES | luciferase mRNA ([1]; compared with lipid-depleted media, where mRNA was elevated) | LDLR mRNA ([1]; presence or absence of cholesterol) | luciferase activity [2]
1 | C[C@H](CCCC(C)(C)O)[C@H]1CC[C@H]2[C@@H]3CC=C4C[C@@H](O)CC[C@]4(C)[C@H]3CC[C@]12C [25-hydroxycholesterol] | suppressed |  | 
2 | CC(C)CCC[C@@H](C)[C@H]1CC[C@H]2[C@@H]3CC=C4C[C@@H](O)CC[C@]4(C)[C@H]3CC[C@]12C [cholesterol] |  | regulated | regulated
